According to the NIST ThermoML archive (doi:10.1016/j.jct.2012.04.018):
Several values for one entry are separate records, joined by “and”; a condition that tells them apart may be missing. Equal values may be shown once. ± gives the expanded uncertainty stated by the source.

Assays:
[1] = refractive index (other wavelength) (dimensionless); xn = mol fraction of the nth substance listed; details: 290.9 K, 101 kPa, Liquid, Wavelength=632.8 nm, He-Ne laser
[2] = heat capacity at constant pressure per volume; xn = mol fraction of the nth substance listed; details: 101 kPa, Liquid, DSC, calvet, x2 = 0.44

Structure (SMILES): N#Cc1ccccc1 [benzonitrile] + CCCCCCCCCCC
- refractive index ([1]; x2 = 0.133): 1.5005 ± 0.0004
- refractive index ([1]; x2 = 0.212): 1.4877 ± 0.0004
- refractive index ([1]; x2 = 0.336): 1.4708 ± 0.0004
- refractive index ([1]; x2 = 0.42): 1.4607 ± 0.0004
- refractive index ([1]; x2 = 0.512): 1.4513 ± 0.0003
- refractive index ([1]; x2 = 0.606): 1.443 ± 0.0003
- refractive index ([1]; x2 = 0.704): 1.4351 ± 0.0003
- refractive index ([1]; x2 = 0.799): 1.4285 ± 0.0003
- refractive index ([1]; x2 = 0.902): 1.4222 ± 0.0003
- heat capacity ([2]; 286.54 K): 1846500 ± 14000 J/K/m3
- heat capacity ([2]; 286.76 K): 1854000 ± 14000 J/K/m3
- heat capacity ([2]; 286.99 K): 1862200 ± 15000 J/K/m3
- heat capacity ([2]; 287.22 K): 1857300 ± 14000 J/K/m3
- heat capacity ([2]; 287.45 K): 1862800 ± 14000 J/K/m3
- heat capacity ([2]; 287.68 K): 1867600 ± 14000 J/K/m3
- heat capacity ([2]; 287.91 K): 1870300 ± 14000 J/K/m3
- heat capacity ([2]; 288.14 K): 1878500 ± 15000 J/K/m3
- heat capacity ([2]; 288.37 K): 1879100 ± 15000 J/K/m3
- heat capacity ([2]; 288.6 K): 1887700 ± 15000 J/K/m3
- heat capacity ([2]; 288.83 K): 1896600 ± 15000 J/K/m3
- heat capacity ([2]; 288.94 K): 1895600 ± 15000 J/K/m3
- heat capacity ([2]; 289.06 K): 1899000 ± 16000 J/K/m3
- heat capacity ([2]; 289.17 K): 1913500 ± 16000 J/K/m3
- heat capacity ([2]; 289.29 K): 1889000 ± 12000 J/K/m3
- heat capacity ([2]; 289.4 K): 1931900 ± 16000 J/K/m3
- heat capacity ([2]; 289.43 K): 1910800 ± 15000 J/K/m3
- heat capacity ([2]; 289.46 K): 1918000 ± 16000 J/K/m3
- heat capacity ([2]; 289.5 K): 1946800 ± 18000 J/K/m3
- heat capacity ([2]; 289.53 K): 1960500 ± 18000 J/K/m3
- heat capacity ([2]; 289.56 K): 1952300 ± 18000 J/K/m3
- heat capacity ([2]; 289.6 K): 1953700 ± 17000 J/K/m3
- heat capacity ([2]; 289.63 K): 1973800 ± 18000 J/K/m3
- heat capacity ([2]; 289.67 K): 1984300 ± 21000 J/K/m3
- heat capacity ([2]; 289.7 K): 1990700 ± 20000 J/K/m3
- heat capacity ([2]; 289.74 K): 1995400 ± 23000 J/K/m3
- heat capacity ([2]; 289.75 K): 2003100 ± 19000 J/K/m3
- heat capacity ([2]; 289.77 K): 2011400 ± 22000 J/K/m3
- heat capacity ([2]; 289.78 K): 2022500 ± 25000 J/K/m3
- heat capacity ([2]; 289.79 K): 2035800 ± 26000 J/K/m3
- heat capacity ([2]; 289.8 K): 2046300 ± 26000 J/K/m3
- heat capacity ([2]; 289.81 K): 2053900 ± 28000 J/K/m3
- heat capacity ([2]; 289.82 K): 2063600 ± 28000 J/K/m3
- heat capacity ([2]; 289.83 K): 2084100 ± 29000 J/K/m3
- heat capacity ([2]; 289.85 K): 2111800 ± 35000 J/K/m3
- heat capacity ([2]; 289.86 K): 2155800 ± 53000 J/K/m3 and 2141800 ± 67000 J/K/m3 and 2104500 ± 120000 J/K/m3
- heat capacity ([2]; 289.87 K): 2067700 ± 510000 J/K/m3 and 2029900 ± 150000 J/K/m3 and 1997600 ± 66000 J/K/m3
- heat capacity ([2]; 289.88 K): 1943900 ± 39000 J/K/m3 and 1858200 ± 29000 J/K/m3
- heat capacity ([2]; 289.89 K): 1823500 ± 26000 J/K/m3
- heat capacity ([2]; 289.9 K): 1809500 ± 24000 J/K/m3
- heat capacity ([2]; 289.92 K): 1795800 ± 27000 J/K/m3
- heat capacity ([2]; 289.93 K): 1786900 ± 29000 J/K/m3
- heat capacity ([2]; 289.94 K): 1780500 ± 28000 J/K/m3
- heat capacity ([2]; 289.95 K): 1778700 ± 32000 J/K/m3
- heat capacity ([2]; 289.98 K): 1770500 ± 36000 J/K/m3
- heat capacity ([2]; 290.01 K): 1757500 ± 12000 J/K/m3
- heat capacity ([2]; 290.04 K): 1756200 ± 12000 J/K/m3
- heat capacity ([2]; 290.06 K): 1746900 ± 11000 J/K/m3
- heat capacity ([2]; 290.09 K): 1748200 ± 9900 J/K/m3
- heat capacity ([2]; 290.12 K): 1747000 ± 10000 J/K/m3
- heat capacity ([2]; 290.15 K): 1739100 ± 10000 J/K/m3
- heat capacity ([2]; 290.18 K): 1736600 ± 10000 J/K/m3
- heat capacity ([2]; 290.21 K): 1740600 ± 9500 J/K/m3
- heat capacity ([2]; 290.24 K): 1732400 ± 9900 J/K/m3
- heat capacity ([2]; 290.27 K): 1728300 ± 9700 J/K/m3
- heat capacity ([2]; 290.44 K): 1721500 ± 9200 J/K/m3
- heat capacity ([2]; 290.64 K): 1711900 ± 8600 J/K/m3
- heat capacity ([2]; 290.84 K): 1707300 ± 8400 J/K/m3
- heat capacity ([2]; 291.04 K): 1702300 ± 8600 J/K/m3
- heat capacity ([2]; 291.24 K): 1698500 ± 8400 J/K/m3
- heat capacity ([2]; 291.44 K): 1694500 ± 8400 J/K/m3
- heat capacity ([2]; 291.64 K): 1693500 ± 8400 J/K/m3
- heat capacity ([2]; 291.85 K): 1691400 ± 8600 J/K/m3
- heat capacity ([2]; 292.05 K): 1688200 ± 8400 J/K/m3
- heat capacity ([2]; 292.25 K): 1688500 ± 8400 J/K/m3
- heat capacity ([2]; 292.45 K): 1685900 ± 8400 J/K/m3
- heat capacity ([2]; 292.65 K): 1684300 ± 8200 J/K/m3
- heat capacity ([2]; 292.85 K): 1683400 ± 8200 J/K/m3
- heat capacity ([2]; 293.19 K): 1682100 ± 7800 J/K/m3
- heat capacity ([2]; 293.43 K): 1680500 ± 7600 J/K/m3
- heat capacity ([2]; 293.65 K): 1678500 ± 8000 J/K/m3
- heat capacity ([2]; 293.88 K): 1679000 ± 7600 J/K/m3
- heat capacity ([2]; 294.11 K): 1678400 ± 7800 J/K/m3
- heat capacity ([2]; 294.34 K): 1676100 ± 7800 J/K/m3
- heat capacity ([2]; 294.57 K): 1675700 ± 7400 J/K/m3
- heat capacity ([2]; 294.8 K): 1675100 ± 7800 J/K/m3
- heat capacity ([2]; 295.11 K): 1673900 ± 800 J/K/m3
- heat capacity ([2]; 295.85 K): 1672100 ± 800 J/K/m3
- heat capacity ([2]; 296.59 K): 1670800 ± 800 J/K/m3
- heat capacity ([2]; 297.34 K): 1670100 ± 800 J/K/m3
- heat capacity ([2]; 298.08 K): 1669100 ± 800 J/K/m3
- heat capacity ([2]; 298.82 K): 1667900 ± 800 J/K/m3
- heat capacity ([2]; 299.57 K): 1667300 ± 800 J/K/m3
- heat capacity ([2]; 300.31 K): 1667200 ± 800 J/K/m3
- heat capacity ([2]; 301.05 K): 1666300 ± 800 J/K/m3
- heat capacity ([2]; 301.8 K): 1666200 ± 800 J/K/m3
- heat capacity ([2]; 302.54 K): 1665900 ± 600 J/K/m3
- heat capacity ([2]; 303.29 K): 1665200 ± 600 J/K/m3
- heat capacity ([2]; 304.03 K): 1665100 ± 600 J/K/m3
- heat capacity ([2]; 304.77 K): 1665400 ± 600 J/K/m3
- heat capacity ([2]; 305.52 K): 1665600 ± 600 J/K/m3
- heat capacity ([2]; 306.26 K): 1665000 ± 600 J/K/m3
- heat capacity ([2]; 307 K): 1664800 ± 600 J/K/m3
- heat capacity ([2]; 307.75 K): 1665500 ± 600 J/K/m3
- heat capacity ([2]; 308.49 K): 1665600 ± 600 J/K/m3
- heat capacity ([2]; 309.23 K): 1665400 ± 600 J/K/m3
- heat capacity ([2]; 309.98 K): 1665500 ± 600 J/K/m3
- heat capacity ([2]; 310.72 K): 1665900 ± 600 J/K/m3
- heat capacity ([2]; 311.46 K): 1666400 ± 600 J/K/m3
- heat capacity ([2]; 312.21 K): 1666000 ± 600 J/K/m3
- heat capacity ([2]; 312.95 K): 1665700 ± 600 J/K/m3
- heat capacity ([2]; 313.69 K): 1666100 ± 600 J/K/m3
- heat capacity ([2]; 314.44 K): 1667100 ± 600 J/K/m3
- heat capacity ([2]; 315.18 K): 1666800 ± 600 J/K/m3
- heat capacity ([2]; 315.92 K): 1667700 ± 600 J/K/m3
- heat capacity ([2]; 316.67 K): 1668100 ± 600 J/K/m3
- heat capacity ([2]; 317.41 K): 1667700 ± 600 J/K/m3
- heat capacity ([2]; 318.15 K): 1667700 ± 600 J/K/m3
- heat capacity ([2]; 318.9 K): 1668700 ± 600 J/K/m3
- heat capacity ([2]; 319.64 K): 1667900 ± 600 J/K/m3
- heat capacity ([2]; 320.69 K): 1668700 ± 600 J/K/m3
- heat capacity ([2]; 321.75 K): 1669700 ± 600 J/K/m3
- heat capacity ([2]; 322.8 K): 1669700 ± 600 J/K/m3
- heat capacity ([2]; 323.86 K): 1670100 ± 600 J/K/m3
- heat capacity ([2]; 324.91 K): 1671400 ± 600 J/K/m3
